Laboratory results taken from patent US20170333450A1, “COMPOSITIONS AND METHODS FOR TREATING HIV-ASSOCIATED COGNITIVE DYSFUNCTION” (The Regents of the University of California, priority 2014, published 2017).
“Also recorded” adds a separate entry of the source.

Columns and labels:
[1] = test system: heme-oxygenase-1 (HO-1); assay: HO-1 expression in HIV-infected and non-infected monocyte-derived macrophages (MDM) treated with test drug; assay type: cell-based, human; details: Bardoxolone 5 nM or 50 nM, FIG. 1, Panel A
From the text: (§1) FIG. 1 includes three panels identified as panels A, B, and C showing the results of preclinical testing of Bardoxolone in human monocyte-derived macrophages (MDM) and primary rodent neurons. […] “Mock 1” and “Mock 2” correspond to supernatant from untreated, uninfected macrophages run in parallel with treated macrophages. “Vehicle 1” and “Vehicle 2” correspond to supernatant from macrophages that received 0.05% DMSO and no additional drug. […] This effect is seen at Bardoxolone concentrations as low as 5 nM.
(§2) Monocyte-derived macrophages (MDM), obtained from uninfected donors, were pretreated with Bardoxolone (5 nM or 50 nM), Tempol, 4-hydroxy-2,2,6,6-tetramethylpiperidin-1-oxyl, (500 nM or 5 μM) or control (0.05% DMSO) for 24 hours prior to HIV infection. […] See FIG. 1, Panel A. This enhanced HO-1 expression decreases release of soluble neurotoxins from infected MDM. “Mock 1” and “Mock 2” correspond to supernatant from untreated, uninfected macrophage run in parallel with treated macrophages. “Vehicle 1” and “Vehicle 2” correspond to supernatant from macrophages that received 0.05% DMSO and no additional drug. Final concentration of DMSO in all treated wells is 0.05%.

[2] = test system: HIV; assay: HIV replication in MDM by reverse transcriptase (RT) activity in the culture supernatant; assay type: cell-based; details: FIG. 1, Panel B
From the text: as §1, §2
Viral replication was determined via reverse, transcriptase (RT) expression in the cell culture supernatant. The RT assay measured incorporation of ^32P dT into long chain poly rA.

[3] = test system: primary rodent neurons; assay: Neurotoxicity of MDM culture supernatants on cultured primary rodent neurons (MAP-2 expression); assay type: cell-based; details: supernatants of HIV infected MDM on primary rodent neurons, FIG. 1, Panel C
From the text: as §1
In addition, pre-treated neurons were exposed to the supernatants. Briefly, MDM culture supernatants are applied to cultured primary rodent neurons to test for MDM culture supernatant neurotoxicity. […] This is an indication of neuronal health.

[4] = test system: HIV-infected U1 monocytes; assay: Viral expression (p24 gag) in HIV-infected U1 monocytes after LPS stimulation; assay type: cell-based; details: 250 nM pre-treatment overnight, LPS activated; FIG. 2
Method: As such, methods for reducing viral replication may reduce risk for HAND. In another series of experiments, HIV-infected monocytes were exposed to a virus replication stimulus to determine if pretreatment with Bardoxolone inhibited viral replication. […] Here, a comparison of control cells with those pre-treated with either Tempol (1 μM) or Bardoxolone (250 nM) overnight was performed. The cells were then split into two conditions: LPS activated and non-LPS.

SMILES: CC1(C)CC[C@]2(C(=O)O)CC[C@]3(C)[C@H](C(=O)C=C4[C@@]5(C)C=C(C#N)C(=O)C(C)(C)[C@@H]5CC[C@]43C)[C@@H]2C1 [Bardoxolone]
- expression of HO-1 in HIV-infected MDM ([1]; 24 hours before HIV infection and throughout infection): enhanced expression
- expression of HO-1 in non-infected MDM [1]: enhanced expression
- concentration at which reduction of HIV replication in MDM is seen ([2]; lowest concentration tested, RT activity): ≤ 5 nM
- HIV reverse transcriptase (RT) activity in the culture supernatants (HIV replication in MDM) ([2]; pre-treatment 24 hours before HIV infection, 5 nM or 50 nM): reduced levels
- levels of MAP-2 in the neuron cultures [3]: maintenance or normal levels
- neurotoxicity of the MDM cell culture supernatants ([3]; compared to vehicle control and to Tempol): dramatically reduced
- amount of viral expression (p24 gag) following stimulation [4]: reduced; also recorded: decreased
